Experimental data taken from ChEMBL document CHEMBL5625206, “Design, synthesis, and evaluation of novel pleuromutilin aryl acrylate derivatives as promising broad-spectrum antibiotics especially for combatting multi-drug resistant gram-negative bacteria” (Eur J Med Chem, 2023).
Converted amounts (≈) assume the structure as drawn.

Columns and labels:
[1] = tested on: Staphylococcus aureus; assay: Antibacterial activity against Staphylococcus aureus ATCC 25923 assessed as bacterial growth inhibition incubated for 24 hrs by CLSI based broth microdilution method; assay type: functional
[2] = tested on: Staphylococcus aureus; assay: Antibacterial activity against Staphylococcus aureus ATCC 29213 assessed as bacterial growth inhibition incubated for 24 hrs by CLSI based broth microdilution method; assay type: functional
[3] = tested on: Staphylococcus aureus; assay: Antibacterial activity against methicillin-resistant Staphylococcus aureus ATCC 33591 assessed as bacterial growth inhibition incubated for 24 hrs by CLSI based broth microdilution method; assay type: functional
[4] = tested on: Staphylococcus epidermidis; assay: Antibacterial activity against Staphylococcus epidermidis ATCC 12228 assessed as bacterial growth inhibition incubated for 24 hrs by CLSI based broth microdilution method; assay type: functional
[5] = tested on: Acinetobacter baumannii; assay: Antibacterial activity against Acinetobacter baumannii ATCC 19606 assessed as bacterial growth inhibition incubated for 24 hrs by CLSI based broth microdilution method; assay type: functional
[6] = tested on: Escherichia coli; assay: Antibacterial activity against Escherichia coli ATCC 25922 assessed as bacterial growth inhibition incubated for 24 hrs by CLSI based broth microdilution method; assay type: functional
[7] = Cytotoxicity against HEK293 cells incubated for 24 hrs by CCK8 assay; assay type: toxicity, cell-based; conditions: human
[8] = tested on: Acinetobacter baumannii; assay: Antibacterial activity against carbapenem-resistant Acinetobacter baumannii 882 clinical isolate assessed as bacterial growth inhibition incubated for 24 hrs by CLSI based broth microdilution method; assay type: functional
[9] = Cytotoxicity against human HepG2 cells incubated for 24 hrs by CCK8 assay; assay type: toxicity, cell-based
[10] = tested on: Staphylococcus aureus; assay: Antibacterial activity against methicillin-resistant Staphylococcus aureus 575 clinical isolate assessed as bacterial growth inhibition incubated for 24 hrs by CLSI based broth microdilution method; assay type: functional
[11] = tested on: Enterococcus; assay: Antibacterial activity against vancomycin-resistant Enterococcus 80 clinical isolate assessed as bacterial growth inhibition incubated for 24 hrs by CLSI based broth microdilution method; assay type: functional
[12] = Cytotoxicity against human A549 cells incubated for 24 hrs by CCK8 assay; assay type: toxicity, cell-based
[13] = tested on: Pseudomonas aeruginosa; assay: Antibacterial activity against multidrug-resistant Pseudomonas aeruginosa 126 clinical isolate assessed as bacterial growth inhibition incubated for 24 hrs by CLSI based broth microdilution method; assay type: functional
[14] = tested on: Klebsiella pneumoniae; assay: Antibacterial activity against multidrug-resistant Klebsiella pneumoniae 893 clinical isolate assessed as bacterial growth inhibition incubated for 24 hrs by CLSI based broth microdilution method; assay type: functional
[15] = tested on: Staphylococcus aureus; assay: Antibacterial activity against methicillin-resistant Staphylococcus aureus 171 clinical isolate assessed as bacterial growth inhibition incubated for 24 hrs by CLSI based broth microdilution method; assay type: functional

C=C[C@]1(C)C[C@@H](OC(=O)COC(=O)/C=C/c2ccc(OC)c(OC)c2)[C@]2(C)[C@H](C)CC[C@]3(CCC(=O)[C@H]32)[C@@H](C)[C@@H]1O
MIC [1]: 4 µg/mL (≈ 7.03 µM)
MIC [2]: 8 µg/mL (≈ 14.1 µM)
MIC [3]: 32 µg/mL (≈ 56.3 µM)
MIC [4]: 16 µg/mL (≈ 28.1 µM)
MIC [5]: > 128 µg/mL
MIC [6]: 64 µg/mL (≈ 113 µM)

C=C[C@]1(C)C[C@@H](OC(=O)COC(=O)/C=C/c2ccccc2C(F)(F)F)[C@]2(C)[C@H](C)CC[C@]3(CCC(=O)[C@H]32)[C@@H](C)[C@@H]1O
MIC [1]: 32 µg/mL (≈ 55.5 µM)
MIC [2]: 64 µg/mL (≈ 111 µM)
MIC [3]: 128 µg/mL (≈ 222 µM)
MIC [4]: 64 µg/mL (≈ 111 µM)
MIC [5]: > 128 µg/mL
MIC [6]: > 128 µg/mL

C=C[C@]1(C)C[C@@H](OC(=O)COC(=O)/C=C/c2cccc(C#N)c2)[C@]2(C)[C@H](C)CC[C@]3(CCC(=O)[C@H]32)[C@@H](C)[C@@H]1O
MIC [1]: 2 µg/mL (≈ 3.75 µM)
CC50 at 24 h [7]: 29.2 µM
MIC [2]: 8 µg/mL (≈ 15 µM)
MIC [8]: > 128 µg/mL
CC50 at 24 h [9]: 78.5 µM
MIC [10]: 64 µg/mL (≈ 120 µM)
MIC [3]: 16 µg/mL (≈ 30 µM)
MIC [11]: 16 µg/mL (≈ 30 µM)
MIC [4]: 2 µg/mL (≈ 3.75 µM)
CC50 at 24 h [12]: > 200 µM
MIC [5]: 128 µg/mL (≈ 240 µM)
MIC [13]: 128 µg/mL (≈ 240 µM)
MIC [6]: 64 µg/mL (≈ 120 µM)
MIC [14]: 128 µg/mL (≈ 240 µM)
MIC [15]: 32 µg/mL (≈ 60 µM)

C=C[C@]1(C)C[C@@H](OC(=O)COC(=O)/C=C/c2ccc(C(F)(F)F)cc2F)[C@]2(C)[C@H](C)CC[C@]3(CCC(=O)[C@H]32)[C@@H](C)[C@@H]1O
MIC [1]: 8 µg/mL (≈ 13.5 µM)
MIC [2]: 16 µg/mL (≈ 26.9 µM)
MIC [3]: 64 µg/mL (≈ 108 µM)
MIC [4]: 16 µg/mL (≈ 26.9 µM)
MIC [5]: > 128 µg/mL
MIC [6]: 128 µg/mL (≈ 215 µM)

C=C[C@]1(C)C[C@@H](OC(=O)COC(=O)/C=C/c2ccc3ccccc3c2)[C@]2(C)[C@H](C)CC[C@]3(CCC(=O)[C@H]32)[C@@H](C)[C@@H]1O
MIC [1]: 16 µg/mL (≈ 28.6 µM)
MIC [2]: 32 µg/mL (≈ 57.3 µM)
MIC [3]: 128 µg/mL (≈ 229 µM)
MIC [4]: 32 µg/mL (≈ 57.3 µM)
MIC [5]: > 128 µg/mL
MIC [6]: > 128 µg/mL

C=C[C@]1(C)C[C@@H](OC(=O)COC(=O)/C=C/c2ccc(OCc3ccccc3)cc2)[C@]2(C)[C@H](C)CC[C@]3(CCC(=O)[C@H]32)[C@@H](C)[C@@H]1O
MIC [1]: 16 µg/mL (≈ 26 µM)
MIC [2]: 32 µg/mL (≈ 52.1 µM)
MIC [3]: 128 µg/mL (≈ 208 µM)
MIC [4]: 32 µg/mL (≈ 52.1 µM)
MIC [5]: 64 µg/mL (≈ 104 µM)
MIC [6]: > 128 µg/mL

C=C[C@]1(C)C[C@@H](OC(=O)COC(=O)/C=C/c2ccco2)[C@]2(C)[C@H](C)CC[C@]3(CCC(=O)[C@H]32)[C@@H](C)[C@@H]1O
MIC [1]: 64 µg/mL (≈ 128 µM)
MIC [2]: 8 µg/mL (≈ 16 µM)
MIC [3]: 32 µg/mL (≈ 64.2 µM)
MIC [4]: 8 µg/mL (≈ 16 µM)
MIC [5]: 64 µg/mL (≈ 128 µM)
MIC [6]: 64 µg/mL (≈ 128 µM)

C=C[C@]1(C)C[C@@H](OC(=O)COC(=O)/C=C/c2cccc(F)c2)[C@]2(C)[C@H](C)CC[C@]3(CCC(=O)[C@H]32)[C@@H](C)[C@@H]1O
MIC [1]: 16 µg/mL (≈ 30.4 µM)
MIC [2]: 32 µg/mL (≈ 60.8 µM)
MIC [3]: 64 µg/mL (≈ 122 µM)
MIC [4]: 32 µg/mL (≈ 60.8 µM)
MIC [5]: > 128 µg/mL
MIC [6]: > 128 µg/mL

C=C[C@]1(C)C[C@@H](OC(=O)COC(=O)/C=C/c2ccc(OC)cc2)[C@]2(C)[C@H](C)CC[C@]3(CCC(=O)[C@H]32)[C@@H](C)[C@@H]1O
MIC [1]: 4 µg/mL (≈ 7.43 µM)
MIC [2]: 8 µg/mL (≈ 14.9 µM)
MIC [3]: 16 µg/mL (≈ 29.7 µM)
MIC [4]: 2 µg/mL (≈ 3.71 µM)
MIC [5]: > 128 µg/mL
MIC [6]: 32 µg/mL (≈ 59.4 µM)

C=C[C@]1(C)C[C@@H](OC(=O)COC(=O)/C=C/c2ccncc2)[C@]2(C)[C@H](C)CC[C@]3(CCC(=O)[C@H]32)[C@@H](C)[C@@H]1O
MIC [1]: 8 µg/mL (≈ 15.7 µM)
MIC [2]: 16 µg/mL (≈ 31.4 µM)
MIC [3]: 32 µg/mL (≈ 62.8 µM)
MIC [4]: 4 µg/mL (≈ 7.85 µM)
MIC [5]: 64 µg/mL (≈ 126 µM)
MIC [6]: 64 µg/mL (≈ 126 µM)

C=C[C@]1(C)C[C@@H](OC(=O)COC(=O)/C=C/c2ccc(F)c(F)c2F)[C@]2(C)[C@H](C)CC[C@]3(CCC(=O)[C@H]32)[C@@H](C)[C@@H]1O
MIC [1]: 32 µg/mL (≈ 56.9 µM)
MIC [2]: 64 µg/mL (≈ 114 µM)
MIC [3]: 128 µg/mL (≈ 228 µM)
MIC [4]: 16 µg/mL (≈ 28.4 µM)
MIC [5]: 128 µg/mL (≈ 228 µM)
MIC [6]: 64 µg/mL (≈ 114 µM)

C=C[C@]1(C)C[C@@H](OC(=O)COC(=O)/C=C/c2cccc(Cl)c2)[C@]2(C)[C@H](C)CC[C@]3(CCC(=O)[C@H]32)[C@@H](C)[C@@H]1O
MIC [1]: 16 µg/mL (≈ 29.5 µM)
MIC [2]: 32 µg/mL (≈ 58.9 µM)
MIC [3]: 32 µg/mL (≈ 58.9 µM)
MIC [4]: 8 µg/mL (≈ 14.7 µM)
MIC [5]: 128 µg/mL (≈ 236 µM)
MIC [6]: 64 µg/mL (≈ 118 µM)

C=C[C@]1(C)C[C@@H](OC(=O)COC(=O)/C=C/c2ccc(F)c(Cl)c2)[C@]2(C)[C@H](C)CC[C@]3(CCC(=O)[C@H]32)[C@@H](C)[C@@H]1O
MIC [1]: 16 µg/mL (≈ 28.5 µM)
MIC [2]: 32 µg/mL (≈ 57 µM)
MIC [3]: 64 µg/mL (≈ 114 µM)
MIC [4]: 32 µg/mL (≈ 57 µM)
MIC [5]: > 128 µg/mL
MIC [6]: 64 µg/mL (≈ 114 µM)
